# Patent US20020022586A1, “Method for treating a patient with neoplasia by treatment with a pyrimidine analog” (priority 1998, published 2002)
# Where two headings read alike, the source gives them in different places.
# Assays:
# HT-29 cells [1] = assay: HT-29 tumor cell growth inhibition, SRB assay; type: cell-based, human; set-up: Growth Inhibition: key to the marks not given beside the values; conditions: for Growth inhibitory activity, % Inhibition at 100 μM / inhibition at 100 µM: 100 μM single dose; for IC50 / inhibition at 100 µM: Homo sapiens; for IC50: SRB assay; for inhibition at 100 µM: HT-29, read-out: Growth inhibitory activity, % Inhibition at 100 μM
# COX = COX inhibition; type: biochemical
# [2] = test system: PDE peak B (novel cGMP-specific PDE); assay: cGMP hydrolysis by PDE peak B isolated from SW-480 cells; type: biochemical, human; conditions: 0.25 μM 3H-cGMP
# HT-29 cells [3] = assay: Apoptosis by DNA fragmentation assay in HT-29 cells; type: cell-based, human
# cGMP-PDE = test system: T1, cGMP-PDE; assay: cGMP-PDE inhibition assay, enzyme from HT-29 tumor cells; type: biochemical, human; conditions: 100 μM
# T1 construct: other: 10 μM; other: 100 μM; other: enzyme from HT-29 cells; other: 20 μM
# PDE peak A (PDE5) = biological target: T2, PDE peak A (PDE5) (Homo sapiens, UniProt O76074); assay: cGMP hydrolysis by PDE peak A isolated from SW-480 cells; type: biochemical
# T2 construct: SW-480 cells are collected and homogenized; endogenous in cells; host or cells: SW-480 human colon adenocarcinoma cells; supernatant of homogenate fractionated on DEAE-Trisacryl M
# HT-29, Colon = assay: Growth inhibition of various cell lines (Table 5); type: cell-based; conditions: Homo sapiens
# DU-145 = assay: Growth inhibition of various cell lines (Table 5); type: cell-based; conditions: Homo sapiens
# Experimental: (§1) To show the effectiveness of cGMP-specific PDE inhibition on various forms of neoplasia, compounds were tested on numerous cell lines. […] The IC50 values were determined by the SRB assay. […] Therefore, compounds selected for cGMP-specific PDE inhibition in combination with a pyrimidine analog should be useful for treating neoplasia, in particular breast, colorectal and pancreatic cancers.
# HCT-15 = assay: Growth inhibition of various cell lines (Table 5); type: cell-based; conditions: Homo sapiens
# Experimental: as §1
# MDA-MB-435 = assay: Growth inhibition of various cell lines (Table 5); type: cell-based; conditions: Homo sapiens
# Experimental: as §1
# [4] = test system: premalignant lesions in mouse mammary gland organ culture; assay: Mammary gland organ culture model; type: cell-based; conditions: for Mammary Gland Organ Culture: activity profile; for inhibition of premalignant lesions: mammary gland organ culture; for mammary gland organ culture: key: −: Not active; +: Slightly active; ++: Moderately active; +++: Strongly active; ++++: Highly active
# Experimental: For example, female BALB/c mice can be treated with a combination of estradiol and progesterone daily, in order to prime the glands to be responsive to hormones in vitro. The animals are sacrificed and thoracic mammary glands are excised aseptically and incubated for ten days in growth media supplemented with insulin, prolactin, hydrocortisone, and aldosterone. DMBA (7,12-dimethylbenz(a)anthracene) is added to medium to induce the formation of premalignant lesions. Fully developed glands are then deprived of prolactin, hydrocortisone, and aldosterone, resulting in the regression of the glands but not the premalignant lesions.
# The test compound is dissolved in DMSO and added to the culture media for the duration of the culture period. At the end of the culture period, the glands are fixed in 10% formalin, stained with alum carmine, and mounted on glass slides. The extent of the area occupied by the mammary lesions can be quantitated by projecting an image of the gland onto a digitation pad. The area covered by the gland is traced on the pad and considered as 100% of the area. The space covered by each of the unregressed structures is also outlined on the digitization pad and quantitated by the computer.
# The incidence of forming mammary lesions is the ratio of the glands with mammary lesions to […]. The incidence of mammary lesions in test compound treated glands is compared with that of the untreated glands.
# Mammary gland organ culture experiments were performed as previously described (Mehta and Moon, Cancer Research, 46: 5832-5835, 1986). […] The data support the hypothesis that cyclooxygenase inhibition is not necessary for the anti-neoplastic properties of desired compounds.
# A-427, Lung = assay: Growth inhibition of various cell lines (Table 5); type: cell-based; conditions: Homo sapiens
# Experimental: as §1
# [5] = test system: Human Prostate Carcinoma PC3; assay: Growth inhibition of various cell lines (Table 5); type: cell-based
# Experimental: as §1
# [6] = Side effects of exisulind on administration; type: in vivo
# Text: This effect is reversible, and liver enzymes return to normal levels when the administered dose of exisulind returns to the traditionally recommended level or when treatment is discontinued. The most serious side effect of pyrimidine analogs, on the other hand, is bone marrow suppression.
# HT-29 cells [7] = assay: Apoptosis and necrosis by morphology (acridine orange/ethidium bromide) in HT-29 cells; type: cell-based, human
# Text: Following treatment with a test compound, cultures can be assayed for apoptosis and necrosis by fluorescent microscopy following labeling with acridine orange and ethidium bromide. The method for measuring apoptotic cell number has previously been described by Duke & Cohen, “Morphological And Biochemical Assays Of Apoptosis,” Current Protocols In Immunology, Coligan et al., eds., 3.17.1-3.17.16 (1992, which is incorporated herein by reference).
# For example, floating and attached cells can be collected, and aliquots of cells can be centrifuged. The cell pellet can then be resuspended in media and a dye mixture containing acridine orange and ethidium bromide. The mixture can then be examined microscopically for morphological features of apoptosis.
# Reference compounds and test compounds were analyzed for their cGMP-specific PDE inhibitory activity in accordance with the protocols for the assay, supra. […] Apoptotic and necrotic cell death was determined as previously described (Duke and Cohen, In: Current Protocols in Immunology, 3.17.1-3.17.16, New York, John Wiley and Sons, 1992). […] All data were collected from the same experiment.
# The apoptosis inducing activity for a series of phosphodiesterase inhibitors was determined. HT-29 cell were treated for 6 days with various inhibitors of phosphodiesterase. Apoptosis and necrosis were determined morphologically after acridine orange and ethidium bromide labeling in accordance with the assay described, supra.
# HT-29 cells [8] = assay: cAMP levels in cultured HT-29 cells by radioimmunoassay; type: cell-based, human; conditions: HT-29 cells treated 30 minutes
# Text: It has been observed that a compound which is useful in the practice of this invention (i.e., one that selectively induces apoptosis in neoplastic cells, but not substantially in normal cells) follows a time course consistent with cGMP-specific PDE inhibition. […] The intracellular targets of these drug actions are being studied further, but current data support the concept that the initial rise in cGMP content and the subsequent fall in cAMP content precede apoptosis in neoplastic cells exposed to test compounds useful in this invention. To determine the cyclic AMP content in cell extracts, radioimmunoassay techniques similar to those described above for cGMP are used.
# HT-29 cells [9] = assay: cGMP levels in cultured HT-29 cells by radioimmunoassay; type: cell-based, human; conditions: HT-29 cells treated 30 minutes
# HT-29 cells [10] = assay: HT-29 growth inhibition by counting viable cells after trypan blue staining; type: cell-based, human; conditions: 120 μM, time course
# Experimental: Growth inhibition (FIG. 9A, top) was measured by counting viable cells after trypan blue staining. Apoptosis (FIG. 9B, bottom) was measured by morphological determination following staining with acridine orange and ethidium bromide as described previously (Duke and Cohen, In: Current Protocols in Immunology, 3.17.1-3.17.16, New York, John Wiley and Sons, 1992). […] All data were collected from the same experiment.
# MCF7/S, Breast = assay: Growth inhibition of various cell lines (Table 5); type: cell-based; conditions: Homo sapiens, MCF7S
# Experimental: as §1
# [11] = cGMP hydrolysis, 0.25 μM 3H-cGMP
# [12] = 144 h, HT-29, 6 days, PDE inhibitors, read-out: Growth inhibition (IC50)
compound,measurement,setting,value
"CC(=O)NC(CSC12CC(=O)OC1(C)/C(=C/c1ccc(S(C)(=O)=O)cc1)c1ccc(F)cc12)C(=O)O (racemic) [D, rac-(E)-1-(butan-1′,4′-olido)-[3′,4′:1,2]-6-fluoro-2-methyl-3-(p-methylsulfonylbenzylidene)-1S-indanyl-N-acetylcysteine]","Growth inhibitory activity, % Inhibition at 100 μM",HT-29 cells [1],78%
same,COX Inhibition,COX; activity profile,−
"CCCCCC[C@@H]([C@@H](C)O)n1cnc2c(N)ncnc21 (racemic) [EHNA, reference compound]",IC50,[2],3.7 µM
same,"Apoptosis inducing activity, Fold induction at 100 μM",HT-29 cells [3],<2.0 fold
"CC1=C(CC(=O)O)c2cc(F)ccc2/C1=C\c1ccc(Cl)cc1 [C, (Z)-5-Fluoro-2-methyl-1-(p-chlorobenzylidene)-3-acetic acid]",cGMP PDE % Inhibition at 100 μM,cGMP-PDE,<25%
same,"Growth inhibitory activity, % Inhibition at 100 μM",HT-29 cells [1],80%
"O=C([O-])C1CCN(c2nc(NCc3ccc4c(c3)OCO4)c3cc(Cl)ccc3n2)CC1.[Na+] [Compound E4021, reference compound]","Growth inhibitory activity, % Inhibition at 100 μM",HT-29 cells [1],<50%
"COc1cc(/C=C2/C(C)=C(CC(=O)NCc3ccccc3)c3cc(F)ccc32)cc(OC)c1OC [Compound E, (Z)-5-Fluoro-2-methyl-1-(3,4,5-trimethoxybenzylidene)-3-indenylacetamide, N-benzyl]",IC50,PDE peak A (PDE5); [11],0.38 µM
same,IC50,[2],0.37 µM
same,cGMP PDE % Inhibition at 100 μM,cGMP-PDE,75%
same,IC50,"HT-29 cells [1]; HT-29, 144 h, six days, read-out: IC50 for growth inhibition of HT-29 cells",0.04 µM
same,inhibition at 100 µM,HT-29 cells [1],62%
same,Growth Inhibition,HT-29 cells [1]; activity profile,++++
same,IC50,"HT-29, Colon",0.1 µM
same,IC50,DU-145,0.1 µM
same,IC50,HCT-15,0.6 µM
same,IC50,MDA-MB-435,0.04 µM
same,EC50,"HT-29 cells [3]; Homo sapiens, HT-29, 48 hours, DNA fragmentation, read-out: EC50 for apoptosis induction",0.05 µM
same,Mammary Gland Organ Culture,[4],++++
same,COX Inhibition,COX; 100 μM,did not inhibit COX
same,COX Inhibition,COX; activity profile,−
"CC1=C(CC(=O)O)c2cc(F)ccc2/C1=C\c1ccc(S(C)(=O)=O)cc1 [Exisulind, (Z)-5-fluoro-2-methyl-1-[[4-(methylsulfonyl)phenyl]methylene]indene-3-yl acetic acid]",IC50,"HT-29, Colon",120 µM
same,IC50,"A-427, Lung",130 µM
same,IC50,[5],82 µM
same,inhibition of premalignant lesions,[4],effectively inhibit the formation of premalignant lesions
same,COX Inhibition,COX; activity profile,−
same,side effects at recommended dose,[6]; 300-400 mg/day,no significant side effects
same,liver enzymes at doses higher than recommended,"[6]; doses higher than the recommended therapeutic levels, reversible",elevated levels of liver enzymes
"CC1=C(CC(=O)N(C2CCCCC2)C2CCCCC2)c2cc(F)ccc2/C1=C\c1ccc(S(C)(=O)=O)cc1 [F, (Z)-5-Fluoro-2-methyl-1-(p-methylsulfonylbenzylidene)-3-indenylacetamide, N,N′-dicyclohexyl]",COX Inhibition,COX; activity profile,−
CC1(C)C(=O)Nc2ccc(C3=NNC(=O)CC3)cc21 [Indolidan],IC50,PDE peak A (PDE5); [11],31 µM
same,IC50,[2],> 100 µM
"Clc1cccc(Nc2nnc(-c3ccccc3)c3ccccc23)c1 [MY5445, reference compound]",COX Inhibition,COX; activity profile,++++
Cc1[nH]c(=O)c(C#N)cc1-c1ccncc1 [Milrinone],IC50,HT-29 cells [1]; [12],> 200 µM
same,% Apoptosis,"HT-29 cells [7]; HT-29, 6 days, morphology",18%
same,% Necrosis,"HT-29 cells [7]; HT-29, 6 days, morphology",0%
COc1ccc(C2CNC(=O)C2)cc1OC1CCCC1 (stereo not shown) [Rolipram],IC50,[2],> 100 µM
same,effect on cAMP levels,HT-29 cells [8],increased cAMP levels
"CCCc1nn(C)c2c(=O)[nH]c(-c3cc(S(=O)(=O)N4CCN(C)CC4)ccc3OCC)nc12 [Sildenafil, reference compound]",inhibition at 100 µM,HT-29 cells [1],< 50%
CSc1ccc(/C=C2/C(C)=C(CC(=O)O)c3cc(F)ccc32)cc1 [Sulindac sulfide],IC50,PDE peak A (PDE5),50 µM
same,increase of cGMP levels,HT-29 cells [9],greater than 50%
same,"growth inhibition, viable cell count",HT-29 cells [10],capable of inhibiting tumor cell growth
same,IC50,"MCF7/S, Breast",30 µM
same,apoptosis by morphology,"HT-29 cells [7]; 120 μM, time course",increase in apoptosis
same,Mammary Gland Organ Culture,[4],−
same,inhibition of premalignant lesions,[4],inactive
same,COX Inhibition,COX; activity profile,++++
CCOC(=O)C1=C[C@]2(CC)CCCN3CCc4c(n1c1ccccc41)[C@@H]32 [Vinpocetine],IC50,PDE peak A (PDE5); [11],> 100 µM
same,IC50,[2],> 100 µM
"CCCOc1ccccc1-c1nc2nn[nH]c2c(=O)[nH]1 [Zaprinast, reference compound]",IC50,HT-29 cells [1]; [12],> 100 µM
same,inhibition at 100 µM,HT-29 cells [1],< 50%
CC1=C(CC(=O)O)c2cc(F)ccc2/C1=C/c1ccc([S+](C)[O-])cc1 (stereo not shown) [sulindac sulfoxide],inhibition of premalignant lesions,[4],effectively inhibit the formation of premalignant lesions
"rac-(E)-1-(butan-1′,4′-olido)-[3′,4′:1,2]-6-fluoro-2-methyl-3-(p-methylsulfonylbenzylidene)-1 S-indanyl-glutathione)",COX Inhibition,COX; activity profile,−
"rac-threo-(E)-1-(N,N′-diethylaminoethanethio)-1-(butan-1′,4′-olido)-[3′,4′:1,2′]-6-fluoro-2-methyl-3-(p-methylsulfonylbenzylidene)-indan",cGMP PDE % Inhibition at 100 μM,cGMP-PDE,<25%
same,"Growth inhibitory activity, % Inhibition at 100 μM",HT-29 cells [1],68%
same,"Apoptosis inducing activity, Fold induction at 100 μM",HT-29 cells [3],<2.0 fold
same,Mammary Gland Organ Culture,[4],++
same,COX Inhibition,COX; activity profile,−
"ribo-(E)-1-Triazolo-[2′,3′:1″,3″]-1-(butan-1′,4′-olido)-[3′,4′:1,2]-6-fluoro-2-methyl-3-(p-methylsulfonylbenzylidene)-indan [G]",COX Inhibition,COX; activity profile,−
